In patent US20040235908A1, “3,4-Di-substituted cyclobutene-1,2-diones as CXC-chemokine receptor antagonists” (Schering Corporation, priority 2001, published 2004) one finds IC50 data, which are given here for two compounds.

As a reminder, the IC50 is the concentration that inhibits the measured activity by half. A lower IC50 goes with greater potency.

For the assay, the target named is T1, hCXCR2 (Homo sapiens, UniProt P25025).
T1 construct: purchased Biosignal; host or cells: CHO cells overexpressing hCXCR2 (membrane preparation)
T1 sequence (P25025 1-360): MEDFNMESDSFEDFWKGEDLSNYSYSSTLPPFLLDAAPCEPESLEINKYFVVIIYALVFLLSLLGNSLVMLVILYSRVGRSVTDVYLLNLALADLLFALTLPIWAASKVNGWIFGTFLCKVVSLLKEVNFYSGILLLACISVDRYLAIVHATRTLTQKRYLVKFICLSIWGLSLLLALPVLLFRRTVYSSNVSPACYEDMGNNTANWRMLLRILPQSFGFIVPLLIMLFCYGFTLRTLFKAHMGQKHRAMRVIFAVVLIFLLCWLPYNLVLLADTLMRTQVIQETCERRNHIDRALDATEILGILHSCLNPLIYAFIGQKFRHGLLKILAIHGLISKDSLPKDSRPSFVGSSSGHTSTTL
The experiment in a line: CXCR2 SPA receptor binding assay. As to conditions: hCXCR2-CHO overexpressing membranes, [125I]-IL-8 ligand 0.1 nM. The protocol: For each well of a 96 well plate, a reaction mixture of 4 μg hCXCR2-CHO overexpressing membranes (Biosignal) and 200 μg/well WGA-SPA beads (Amersham) in 100 μl was prepared in CXCR2 assay buffer (25 mM HEPES, pH 7.4, 2 mM CaCl2, 1 mM MgCl2). A 0.4 nM stock of ligand, [125I]-IL-8 (NEN), was prepared in the CXCR2 assay buffer. […] stock solutions of test compounds were prepared in DMSO (Sigma). A 6× stock solution of GRO-α (R&D) was prepared in CXCR2 assay buffer. The above solutions were added to a 96-well assay plate (PerkinElmer or Coming) as follows: 10 μl test compound or DMSO, 40 ul CXCR2 assay buffer or GRO-α stock, 100 μl of reaction mixture, 50 μl of ligand stock (Final [Ligand]=0.1 nM). When 40× stock solutions of test compounds in DMSO were prepared, then the above protocol was used except instead 5 μl test compound or DMSO and 45 μl CXCR2 assay buffer were used. The assay plates were shaken for 5 minutes on a plate shaker, then incubated for 2-8 hours before cpm/well were determined in Microbeta Trilux counter (PerkinElmer). % Inhibition of total binding minus non-specific binding (250 nM Gro-α or 50 μM antagonist) was determined and IC50 values calculated.

Regarding `O=C(c1cccc(Nc2c(Nc3ccccc3)c(=O)c2=O)c1O)N1CCOCC1` [Example 45], the IC50 was determined as 10 nM. As for `CC(C)c1ccccc1Nc1c(Nc2cccc(C(=O)N(C)C)c2O)c(=O)c1=O` [Example 64], the figure is 28 nM.
